In the supplement of paper PMC10307832:

How the values were obtained:
Assay in all cases: relative viability (nuclei count vs DMSO), 5 days (fraction); higher = more cells survive
LK-2 = test system: LK-2
How it was run: (§1)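 Relative viability is defined as nuclei in treated wells over nuclei in vehicle wells. Duplicate plates were run and medians reported. Lung cancer cell lines in 1536-well plates were dosed by pin tool one day after seeding, with one drug or with a fixed anchor-drug dose plus five library-drug doses (not always all listed) in √10 steps, and nuclei were counted after 5 days.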

HARA = test system: HARA
How it was run: as §1

SK-LU-1 = test system: SK-LU-1
How it was run: as §1

UMC-11 = test system: UMC-11
How it was run: as §1

NCI-H2009 = test system: NCI-H2009
How it was run: as §1

NCI-H23 = test system: NCI-H23
How it was run: as §1

NCI-H2228 = test system: NCI-H2228
How it was run: as §1

NCI-H1734 = test system: NCI-H1734
How it was run: as §1

ABC-1 = test system: ABC-1
How it was run: as §1

NCI-H838 = test system: NCI-H838
How it was run: as §1

ChaGo-K-1 = test system: ChaGo-K-1
How it was run: as §1

LC-2-ad = test system: LC-2-ad
How it was run: as §1

A-427 = test system: A-427
How it was run: as §1

HCC-15 = test system: HCC-15
How it was run: as §1

COR-L23 = test system: COR-L23
How it was run: as §1

NCI-H1993 = test system: NCI-H1993
How it was run: as §1

NCI-H2405 = test system: NCI-H2405
How it was run: as §1

NCI-H1650 = test system: NCI-H1650
How it was run: as §1

NCI-H1944 = test system: NCI-H1944
How it was run: as §1

NCI-H2023 = test system: NCI-H2023
How it was run: as §1

NCI-H1793 = test system: NCI-H1793
How it was run: as §1

EMC-BAC-2 = test system: EMC-BAC-2
How it was run: as §1

How did the relative viability (LK-2; first compound 0.04 µM) turn out when COc1cc(N2CCC(C(N)=O)CC2)ccc1Nc1nc(N)c(Cl)c(Nc2ccccc2S(=O)(=O)C(C)C)n1 [HG-5-88-01] + CCNC(=O)c1noc(-c2cc(C(C)C)c(O)cc2O)c1-c1ccc(CN2CCOCC2)cc1 [Luminespib] (partner 0.01 µM) was run?
Its relative viability is 0.192.

And the relative viability (LK-2; first compound 0.1265 µM)?
Its relative viability is 0.241.

What about the relative viability (LK-2; first compound 0.4 µM) of the same compound?
Its relative viability is 0.205.

What about the relative viability (LK-2; first compound 1.265 µM) of the same compound?
The relative viability was 0.183.

What about the relative viability (LK-2; first compound 4 µM) of the same compound?
Its relative viability is 0.193.

And the relative viability (HARA; first compound 0.04 µM)?
Its relative viability is 0.777.

And the relative viability (HARA; first compound 0.1265 µM)?
Its relative viability is 0.813.

What about the relative viability (HARA; first compound 0.4 µM) of the same compound?
The relative viability was 0.565.

What about the relative viability (HARA; first compound 1.265 µM) of the same compound?
The relative viability was 0.5.

What about the relative viability (HARA; first compound 4 µM) of the same compound?
The relative viability was 0.421.

And the relative viability (SK-LU-1; first compound 0.04 µM)?
Its relative viability is 0.209.

And the relative viability (SK-LU-1; first compound 0.1265 µM)?
The relative viability was 0.2.

And the relative viability (SK-LU-1; first compound 0.4 µM)?
The relative viability was 0.196.

And the relative viability (SK-LU-1; first compound 1.265 µM)?
The relative viability was 0.229.

And the relative viability (SK-LU-1; first compound 4 µM)?
The relative viability was 0.199.

And the relative viability (UMC-11; first compound 0.04 µM)?
Its relative viability is 0.914.

And the relative viability (UMC-11; first compound 0.1265 µM)?
Its relative viability is 1.08.

And the relative viability (UMC-11; first compound 1.265 µM)?
The relative viability was 0.983.

What about the relative viability (UMC-11; first compound 4 µM) of the same compound?
Its relative viability is 1.12.

And the relative viability (NCI-H2009; first compound 0.04 µM)?
The relative viability was 1.11.

What about the relative viability (NCI-H2009; first compound 0.1265 µM) of the same compound?
The relative viability was 1.06.

What about the relative viability (NCI-H2009; first compound 0.4 µM) of the same compound?
The relative viability was 0.954.

And the relative viability (NCI-H2009; first compound 1.265 µM)?
The relative viability was 0.994.

What about the relative viability (NCI-H2009; first compound 4 µM) of the same compound?
Its relative viability is 1.12.

And the relative viability (NCI-H23; first compound 0.04 µM)?
The relative viability was 0.215.

What about the relative viability (NCI-H23; first compound 0.1265 µM) of the same compound?
Its relative viability is 0.203.

And the relative viability (NCI-H23; first compound 0.4 µM)?
The relative viability was 0.225.

What about the relative viability (NCI-H23; first compound 1.265 µM) of the same compound?
The relative viability was 0.187.

And the relative viability (NCI-H23; first compound 4 µM)?
The relative viability was 0.241.

What about the relative viability (NCI-H2228; first compound 0.04 µM) of the same compound?
The relative viability was 0.117.

What about the relative viability (NCI-H2228; first compound 0.1265 µM) of the same compound?
The relative viability was 0.149.

What about the relative viability (NCI-H2228; first compound 0.4 µM) of the same compound?
The relative viability was 0.122.

What about the relative viability (NCI-H2228; first compound 1.265 µM) of the same compound?
Its relative viability is 0.109.

What about the relative viability (NCI-H2228; first compound 4 µM) of the same compound?
The relative viability was 0.116.

And the relative viability (NCI-H1734; first compound 0.04 µM)?
The relative viability was 0.214.

And the relative viability (NCI-H1734; first compound 0.1265 µM)?
The relative viability was 0.166.

What about the relative viability (NCI-H1734; first compound 0.4 µM) of the same compound?
Its relative viability is 0.171.

What about the relative viability (NCI-H1734; first compound 1.265 µM) of the same compound?
Its relative viability is 0.19.

What about the relative viability (NCI-H1734; first compound 4 µM) of the same compound?
The relative viability was 0.171.

And the relative viability (ABC-1; first compound 0.04 µM)?
The relative viability was 0.406.

And the relative viability (ABC-1; first compound 0.1265 µM)?
The relative viability was 0.86.

What about the relative viability (ABC-1; first compound 0.4 µM) of the same compound?
The relative viability was 0.345.

What about the relative viability (ABC-1; first compound 1.265 µM) of the same compound?
The relative viability was 0.296.

And the relative viability (ABC-1; first compound 4 µM)?
The relative viability was 0.587.

What about the relative viability (NCI-H838; first compound 0.04 µM) of the same compound?
The relative viability was 0.322.

And the relative viability (NCI-H838; first compound 0.1265 µM)?
The relative viability was 0.288.

What about the relative viability (NCI-H838; first compound 0.4 µM) of the same compound?
Its relative viability is 0.212.

What about the relative viability (NCI-H838; first compound 1.265 µM) of the same compound?
Its relative viability is 0.276.

And the relative viability (NCI-H838; first compound 4 µM)?
Its relative viability is 0.205.

And the relative viability (ChaGo-K-1; first compound 0.04 µM)?
The relative viability was 0.572.

And the relative viability (ChaGo-K-1; first compound 0.1265 µM)?
Its relative viability is 0.682.

What about the relative viability (ChaGo-K-1; first compound 0.4 µM) of the same compound?
Its relative viability is 0.516.

What about the relative viability (ChaGo-K-1; first compound 1.265 µM) of the same compound?
Its relative viability is 0.66.

And the relative viability (ChaGo-K-1; first compound 4 µM)?
Its relative viability is 0.733.

And the relative viability (LC-2-ad; first compound 0.04 µM)?
The relative viability was 1.05.

And the relative viability (LC-2-ad; first compound 0.1265 µM)?
The relative viability was 1.17.

What about the relative viability (LC-2-ad; first compound 0.4 µM) of the same compound?
The relative viability was 1.13.

What about the relative viability (LC-2-ad; first compound 1.265 µM) of the same compound?
The relative viability was 0.812.

And the relative viability (LC-2-ad; first compound 4 µM)?
The relative viability was 1.06.

What about the relative viability (A-427; first compound 0.04 µM) of the same compound?
The relative viability was 1.13.

What about the relative viability (A-427; first compound 0.1265 µM) of the same compound?
The relative viability was 0.916.

What about the relative viability (A-427; first compound 0.4 µM) of the same compound?
Its relative viability is 0.901.

What about the relative viability (A-427; first compound 1.265 µM) of the same compound?
Its relative viability is 0.769.

And the relative viability (A-427; first compound 4 µM)?
The relative viability was 0.754.

What about the relative viability (HCC-15; first compound 0.04 µM) of the same compound?
The relative viability was 0.386.

And the relative viability (HCC-15; first compound 0.1265 µM)?
Its relative viability is 0.2.

What about the relative viability (HCC-15; first compound 0.4 µM) of the same compound?
Its relative viability is 0.553.

And the relative viability (HCC-15; first compound 1.265 µM)?
Its relative viability is 0.468.

And the relative viability (HCC-15; first compound 4 µM)?
Its relative viability is 0.41.

And the relative viability (COR-L23; first compound 0.04 µM)?
Its relative viability is 0.69.

And the relative viability (COR-L23; first compound 0.1265 µM)?
The relative viability was 0.575.

What about the relative viability (COR-L23; first compound 0.4 µM) of the same compound?
The relative viability was 0.589.

And the relative viability (COR-L23; first compound 1.265 µM)?
Its relative viability is 0.614.

And the relative viability (COR-L23; first compound 4 µM)?
Its relative viability is 0.557.

What about the relative viability (NCI-H1993; first compound 0.04 µM) of the same compound?
Its relative viability is 0.957.

And the relative viability (NCI-H1993; first compound 0.1265 µM)?
Its relative viability is 0.826.

What about the relative viability (NCI-H1993; first compound 0.4 µM) of the same compound?
Its relative viability is 0.83.

And the relative viability (NCI-H1993; first compound 1.265 µM)?
The relative viability was 0.648.

What about the relative viability (NCI-H1993; first compound 4 µM) of the same compound?
The relative viability was 0.578.

What about the relative viability (NCI-H2405; first compound 0.04 µM) of the same compound?
The relative viability was 0.872.

What about the relative viability (NCI-H2405; first compound 0.1265 µM) of the same compound?
The relative viability was 0.692.

And the relative viability (NCI-H2405; first compound 0.4 µM)?
The relative viability was 0.594.

And the relative viability (NCI-H2405; first compound 1.265 µM)?
Its relative viability is 0.457.

And the relative viability (NCI-H2405; first compound 4 µM)?
Its relative viability is 0.673.

What about the relative viability (NCI-H1650; first compound 0.04 µM) of the same compound?
Its relative viability is 0.156.

What about the relative viability (NCI-H1650; first compound 0.1265 µM) of the same compound?
Its relative viability is 0.184.

And the relative viability (NCI-H1650; first compound 0.4 µM)?
The relative viability was 0.172.

And the relative viability (NCI-H1650; first compound 1.265 µM)?
The relative viability was 0.197.

And the relative viability (NCI-H1650; first compound 4 µM)?
The relative viability was 0.204.

What about the relative viability (NCI-H1944; first compound 0.04 µM) of the same compound?
The relative viability was 0.808.

What about the relative viability (NCI-H1944; first compound 0.1265 µM) of the same compound?
Its relative viability is 0.821.

And the relative viability (NCI-H1944; first compound 0.4 µM)?
Its relative viability is 0.759.

What about the relative viability (NCI-H1944; first compound 1.265 µM) of the same compound?
Its relative viability is 0.673.

What about the relative viability (NCI-H1944; first compound 4 µM) of the same compound?
Its relative viability is 0.729.

What about the relative viability (NCI-H2023; first compound 0.04 µM) of the same compound?
Its relative viability is 0.397.

What about the relative viability (NCI-H2023; first compound 0.1265 µM) of the same compound?
The relative viability was 0.673.

What about the relative viability (NCI-H2023; first compound 0.4 µM) of the same compound?
The relative viability was 0.671.

What about the relative viability (NCI-H2023; first compound 1.265 µM) of the same compound?
The relative viability was 0.438.

And the relative viability (NCI-H2023; first compound 4 µM)?
Its relative viability is 0.267.

And the relative viability (NCI-H1793; first compound 0.1265 µM)?
Its relative viability is 0.168.

And the relative viability (NCI-H1793; first compound 0.4 µM)?
The relative viability was 0.198.

What about the relative viability (NCI-H1793; first compound 4 µM) of the same compound?
Its relative viability is 0.272.

What about the relative viability (EMC-BAC-2; first compound 0.04 µM) of the same compound?
Its relative viability is 1.09.

And the relative viability (EMC-BAC-2; first compound 0.1265 µM)?
The relative viability was 1.25.

What about the relative viability (EMC-BAC-2; first compound 0.4 µM) of the same compound?
The relative viability was 1.14.

And the relative viability (EMC-BAC-2; first compound 1.265 µM)?
Its relative viability is 1.12.

And the relative viability (EMC-BAC-2; first compound 4 µM)?
The relative viability was 0.892.
